Bounds are passed on as bounds.

In one assay the target is T1, recombinant human liver glycogen phosphorylase (HLGPa) (Homo sapiens, UniProt P06737).
T1 construct: made in house; host or cells: Sf9 insect cells (unpurified cell lysate used as enzyme solution)
T1 sequence (P06737 1-847): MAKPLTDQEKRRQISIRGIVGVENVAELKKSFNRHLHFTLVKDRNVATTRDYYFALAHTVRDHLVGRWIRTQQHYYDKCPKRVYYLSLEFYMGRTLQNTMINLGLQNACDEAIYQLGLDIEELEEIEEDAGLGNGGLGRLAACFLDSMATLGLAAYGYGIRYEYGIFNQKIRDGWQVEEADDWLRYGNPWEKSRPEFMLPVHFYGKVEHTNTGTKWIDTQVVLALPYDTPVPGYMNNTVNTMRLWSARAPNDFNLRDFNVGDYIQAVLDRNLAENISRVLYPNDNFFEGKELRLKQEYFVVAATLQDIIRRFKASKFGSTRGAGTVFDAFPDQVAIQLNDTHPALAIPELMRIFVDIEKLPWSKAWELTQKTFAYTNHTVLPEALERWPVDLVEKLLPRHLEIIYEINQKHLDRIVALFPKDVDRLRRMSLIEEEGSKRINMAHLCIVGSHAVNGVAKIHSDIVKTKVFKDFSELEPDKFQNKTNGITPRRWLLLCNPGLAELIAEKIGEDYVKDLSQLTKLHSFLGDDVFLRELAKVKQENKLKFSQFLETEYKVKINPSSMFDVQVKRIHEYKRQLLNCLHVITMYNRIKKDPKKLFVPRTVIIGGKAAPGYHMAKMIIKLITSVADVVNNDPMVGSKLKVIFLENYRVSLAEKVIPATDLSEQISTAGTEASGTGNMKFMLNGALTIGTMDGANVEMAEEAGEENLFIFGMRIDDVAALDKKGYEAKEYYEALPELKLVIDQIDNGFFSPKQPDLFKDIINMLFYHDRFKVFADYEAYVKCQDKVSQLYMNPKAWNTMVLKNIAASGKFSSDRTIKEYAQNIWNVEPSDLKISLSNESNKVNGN
Put plainly: Measurement of liver glycogen phosphorylase activity (enzyme inhibitory activity against HLGPa). The settings on record: Sf9 cell lysate expressing recombinant enzyme; reverse reaction (glycogen synthesis from G1-P), phosphate by malachite green, 60 min room temperature. Type of assay: biochemical. Put shortly: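 Activity was run in the reverse, glycogen-synthesis direction, using Sf9 lysate expressing recombinant human liver glycogen phosphorylase (enzyme solution 80 μg/mL protein, pH 7.0). Substrate solution was Tris pH 7.2 with 1.25 mM glucose-1-phosphate, 2.5 mg/ml glycogen and 7.5 mM glucose, reacted 60 min at room temperature. Released phosphate was measured by malachite green A650, with % inhibition taken against DMSO control and no-enzyme blank.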
Regarding `CS(=O)(=O)O.N=C(NNC(=O)c1cc2cc(Cl)ccc2[nH]1)c1ccccc1` [Example 6-17, 5-chloro-1H-indole-2-carboxylic acid 2-(imino-phenyl-methyl)hydrazide methanesulfonate], the IC50 (in general, the concentration that gives 50% inhibition) turned out to be 80 nM.
As for `O=C(NN1C(=O)N[C@@H](c2ccccc2)C1=O)c1cc2cc(Cl)ccc2[nH]1` (stereo in doubt) [Example 4, N-(2,4-dioxo-5-phenylimidazolidin-3-yl)-5-chloro-1H-indole-2-carboxamide], the IC50 is 85 nM.
Still for that read-out and setting: for `O=C(O)Cn1c(=O)n(NC(=O)c2cc3cc(Cl)ccc3[nH]2)c(=O)c2ccccc21` [Example 2-21, 2-(3-((5-chloro-1H-indole-2-carbonyl)amino)-1,2,3,4-tetrahydro-2,4-dioxoquinazolin-1-yl)acetic acid] the value was over 100 nM; for `O=C(NN1C(=O)N[C@@H](c2ccc(O)cc2)C1=O)c1cc2cc(Cl)ccc2[nH]1` [Example 4-18, 5-chloro-1H-indole-2-carboxylic acid ((4S)-2,5-dioxo-4-(4-hydroxyphenyl)imidazolidin-1-yl)amide], 75 nM.
The same measure, in the same setting: in the case of `Nc1ccccc1C(=O)NNC(=O)c1cc2cc(Br)ccc2[nH]1` [Example 1-102, 2-aminobenzoic acid 2-(5-bromo-1H-indole-2-carbonyl)hydrazide] it was over 100 nM.
Same read-out and setting: for `Cc1ccc2[nH]c(C(=O)NNC(=O)c3cccn3C)cc2c1` [Example 1-106, 1-methyl-1H-pyrrole-2-carboxylic acid 2-(5-methyl-1H-indole-2-carbonyl)hydrazide] the value was 78 nM; for `N=C(NNC(=O)c1cc2cc(Cl)ccc2[nH]1)c1ccccc1C(F)(F)F` [Example 1-139, 5-chloro-1H-indole-2-carboxylic acid 2-(imino-(2-trifluoromethylphenyl)-methyl)hydrazide], 380 nM.
Turning to `O=C(O)CNc1ccccc1C(=O)NNC(=O)c1cc2cc(Cl)ccc2[nH]1` [Example 1-61, 2-(2-(2-(5-chloro-1H-indole-2-carbonyl)hydrazinocarbonyl)anilino)acetic acid], the IC50 is 49 nM.
As for `O=C(Nn1c(=O)[nH]c2cc(Cl)ccc2c1=O)c1cc2cc(Cl)ccc2[nH]1` [Example 2-19, 5-chloro-1H-indole-2-carboxylic acid (7-chloro-1,2,3,4-tetrahydro-2,4-dioxoquinazolin-3-yl)amide], the IC50 worked out at 91 nM.
Consider `O=C(Nc1ccccc1C(=O)NNC(=O)c1cc2cc(Cl)ccc2[nH]1)OC(CO)CO` [Example 1-75, 1,3-dihydroxy-2-propyl (2-(2-(5-chloro-1H-indole-2-carbonyl)hydrazinocarbonyl)phenyl)carbamate], for which the IC50 was 250 nM.
As for `O=C(NN1C(=O)CCN(c2ccccc2)C1=O)c1cc2cc(Cl)ccc2[nH]1` [Example 3-3, N-(2,4-dioxo-1-phenyl-perhydropyrimidin-3-yl)-5-chloro-1H-indole-2-carboxamide], the concentration for half-maximal inhibition (IC50) came out at 78 nM.
Same read-out and setting: for `O=C(Nc1ccccc1C(=O)NNC(=O)c1cc2cc(Cl)ccc2[nH]1)OCCCO` [Example 1-112, 3-hydroxypropyl (2-(2-(5-chloro-1H-indole-2-carbonyl)hydrazinocarbonyl)phenyl)carbamate] the value was 28 nM; for `COC(=O)COc1ccccc1C(=O)NNC(=O)c1cc2cc(Cl)ccc2[nH]1` [Example 1-49, 2-(2-(2-(5-chloro-1H-indole-2-carbonyl)hydrazinocarbonyl)phenoxy)acetic acid methyl ester], 150 nM; for `O=C(NNC(=O)c1cc2cc(Cl)ccc2[nH]1)c1ccc(-c2nnn[nH]2)cc1` [Example 1-59, 4-(1H-tetrazol-5-yl)benzoic acid 2-(5-chloro-1H-indole-2-carbonyl)hydrazide], over 100 nM.
Same read-out and setting: for `Cc1ccc(N)c(C(=O)NNC(=O)c2cc3cc(Cl)ccc3[nH]2)c1` [Example 1-97, 2-amino-5-methylbenzoic acid 2-(5-chloro-1H-indole-2-carbonyl)hydrazide] the value was 10 nM; for `O=C(NNC(=O)c1ccc(Cl)s1)c1cc2cc(Cl)ccc2[nH]1` [Example 1-85, 5-chlorothiophene-2-carboxylic acid 2-(5-chloro-1H-indole-2-carbonyl)hydrazide], 430 nM; for `O=C(NNC(=O)c1cc2cc(Cl)ccc2[nH]1)c1ccc[nH]1` [Example 1-80, 1H-pyrrole-2-carboxylic acid 2-(5-chloro-1H-indole-2-carbonyl)hydrazide], 400 nM.
On the same count and under the same terms, for `COc1ccccc1C(=N)NNC(=O)c1cc2cc(Cl)ccc2[nH]1` [Example 6-24, 5-chloro-1H-indole-2-carboxylic acid 2-(imino-(2-methoxyphenyl)-methyl)hydrazide methanesulfonate] the value was 160 nM; for `CCc1ccc2[nH]c(C(=O)Nn3c(=O)[nH]c4ccccc4c3=O)cc2c1` [Example 2-25, 5-ethyl-1H-indole-2-carboxylic acid (1,2,3,4-tetrahydro-2,4-dioxoquinazolin-3-yl)amide], over 100 nM.
`Cn1c(=O)n(NC(=O)c2cc3cc(Cl)ccc3[nH]2)c(=O)c2ccccc21` [Example 2-31, 5-chloro-1H-indole-2-carboxylic acid (1,2,3,4-tetrahydro-1-methyl-2,4-dioxoquinazolin-3-yl)amide]: the IC50 turned out to be 26 nM.
Still for that read-out and setting: in the case of `O=C(NNC(=O)c1cc2cc(Cl)ccc2[nH]1)c1cccc(Cl)c1` [Example 1-20, 3-chlorobenzoic acid 2-(5-chloro-1H-indole-2-carbonyl)hydrazide] it was 35 nM; in that of `N=C(NNC(=O)c1cc2cc(Cl)ccc2[nH]1)c1ccc(F)cc1` [Example 1-128, 5-chloro-1H-indole-2-carboxylic acid 2-((4-fluorophenyl)-imino-methyl)hydrazide], 33 nM; in that of `O=C(Nn1c(=O)[nH]c2ccccc2c1=O)c1cc2cc(Cl)ccc2[nH]1` [Example 2, N-(1,2,3,4-tetrahydro-2,4-dioxoquinazolin-3-yl)-5-chloro-1H-indole-2-carboxamide], 16 nM.
Still for that read-out and setting: in the case of `O=C(Nn1c(=O)[nH]c2c(Cl)cccc2c1=O)c1cc2cc(Cl)ccc2[nH]1` [Example 2-20, 5-chloro-1H-indole-2-carboxylic acid (8-chloro-1,2,3,4-tetrahydro-2,4-dioxoquinazolin-3-yl)amide] it was 22 nM; in that of `Cc1cccc(C(=O)NNC(=O)c2cc3cc(Cl)ccc3[nH]2)c1N` [Example 1-99, 2-amino-3-methylbenzoic acid 2-(5-chloro-1H-indole-2-carbonyl)hydrazide], 10 nM.
Still for that read-out and setting: for `O=C(O)COc1cccc(C(=O)NNC(=O)c2cc3cc(Cl)ccc3[nH]2)c1` [Example 1-70, 2-(3-(2-(5-chloro-1H-indole-2-carbonyl)hydrazinocarbonyl)phenoxy)acetic acid] the value was 150 nM; for `O=C(NNC(=O)C1(c2ccccc2)CCCC1)c1cc2cc(Cl)ccc2[nH]1` [Example 5-13, 5-chloro-1H-indole-2-carboxylic acid 2-((1-phenylcyclopentane)carbonyl)hydrazide], 410 nM; for `O=C(NNC(=O)c1sccc1Cl)c1cc2cc(Cl)ccc2[nH]1` [Example 1-86, 3-chlorothiophene-2-carboxylic acid 2-(5-chloro-1H-indole-2-carbonyl)hydrazide], 28 nM.

Another assay concerns db/db mice. Put plainly: Measurement of plasma glucose concentration in obesity type diabetes model db/db mice. Format: in vivo. The settings on record: Mus musculus, po; plasma glucose 1 and 3 hr after administration, after fasting for 4 hr; significant difference vs solvent group (Dunnett's test); read-out: Minimum effective dose db/db mouse. Here is the method: Measurement Method of Plasma Glucose Concentration
Using obesity type diabetes model db/db mice, the effect of the compound (1) of the present invention on glucose concentration in plasma was examined. The glucose concentration in the plasma of db/db mice (10-15 weeks of age) was measured, and the mice were grouped into 5 mice per group such that the average glucose concentration of plasma is leveled. After fasting for 4 hr, the test drug or a solvent (0.5% methyl cellulose) was orally administered to db/db mice, and plasma glucose concentration at 1 and 3 hr after the administration was measured. The hypoglycemic effect of the test drug was evaluated by detecting a significant difference every hour between the solvent administration group and the test drug administration group (Dunnett's test).
With `CS(=O)(=O)O.N=C(NNC(=O)c1cc2cc(Cl)ccc2[nH]1)c1ccccc1` [Example 6-17, 5-chloro-1H-indole-2-carboxylic acid 2-(imino-phenyl-methyl)hydrazide methanesulfonate], the minimal effective dose is 3 mg/kg.
Still for that read-out and setting: in the case of `O=C(NN1C(=O)N[C@@H](c2ccccc2)C1=O)c1cc2cc(Cl)ccc2[nH]1` (stereo in doubt) [Example 4, N-(2,4-dioxo-5-phenylimidazolidin-3-yl)-5-chloro-1H-indole-2-carboxamide] it was 10 mg/kg.
Same read-out and setting: in the case of `O=C(NN1C(=O)NC(c2ccc(F)cc2)C1=O)c1cc2cc(Cl)ccc2[nH]1` (centres unmarked) [Example 4-16, 5-chloro-1H-indole-2-carboxylic acid (2,5-dioxo-4-(4-fluorophenyl)imidazolidin-1-yl)amide] it was 10 mg/kg.
Same read-out and setting: in the case of `CS(=O)(=O)O.N=C(Cc1ccccc1)NNC(=O)c1cc2cc(Cl)ccc2[nH]1` [Example 6-21] it was 10 mg/kg.

(Values after US20050054696A1, “Indole compounds and medicinal use thereof” (priority 2001, published 2005).)
